Measurements reported in patent US6599878B2, “Superoxygenating blood substitutes based on hemoglobin and dihydropyidine compositions” (priority 1992, dated 2003).
“And” between values parts separate entries of the source, which are not always exact repeats. Equal entries are not always repeated. Marks after values point to notes of the source that are not given here.

What was measured:
nitric oxide synthase = assay: L-NAME during Ab-HD pilot study; conditions: dog, in vivo
Description: Approximately 6 mg/kg L-NAME was administered i.v. bolus during Ab-HD.

cyclic GMP [1] = assay: BAEE during oxyHb-HD pilot study; assay type: in vivo, dog; conditions: for cGMP: plasma
Excerpt: (§1) In another pilot study, we examined if infusion of a nitric oxide substrate (N-benzoyl-L-arginine ethyl ester, i.e. BAEE) would override the hypothesized NO scavenging by oxyHb and thereby mimic Ab-HD hemodynamics and cGMP production shown in Tables 8-11. While BAEE administration increased plasma cGMP levels and caused significant vasodilation as evidenced by the decreased mean arterial pressure, cardiac output was not increased (Table 12).

[2] = BAEE during oxyHb-HD pilot study; assay type: in vivo, dog; conditions: n = 3
Excerpt: as §1

[3] = BAEE reversal of L-NAME effects in Ab-HD dogs; assay type: in vivo; conditions: BAEE after L-NAME in AB-HD dogs
Description: With BAEE, the original hemodynamics of Ab-HD alone were expected to be evident, i.e. increased cardiac output.

cyclic GMP [4] = assay: Regional interstitial cGMP by microdialysis; assay type: in vivo, dog; conditions: during hemodilution alone, n = 4
Description: An in vivo method that is based on direct microdialysis of the organ tissue was used to examine the regional interstitial production of cGMP. The microdialysis technique uses a small dialysis fiber (250 μm diameter) that is inserted into the tissue and perfused to sample extracellular metabolites.

[5] = Blood gases, electrolytes, hemoglobin, colloid osmotic pressure and blood volume (Example I); assay type: in vivo, mongrel dogs; conditions: for Plasma Hb: anesthetized dogs
Description: (§2) Blood pH, PCO2, PO2 and Na^+, K^+ and Ca^++ concentrations were measured with a Nova Stat Profile 1 analyzer (Waltham, Mass.). Plasma colloid osmotic pressure (COP) was determined before and after hemodilution with a Wescor 4400 Colloid Osmometer (Logan, Utah). […] Hematocrit was determined volumetrically. Hemoglobin (gm %), methemoglobin (%) and percent oxygen saturation were measured with an Instrumentation Laboratories 482 CO-Oximeter (Lexington, Mass.). Hemoglobin oxygen content was measured with the co-oximeter and added to the dissolved oxygen (0.003×PO2) to give total blood oxygen content (vol %).
Total blood volume was computed from plasma volume (indicator dilution of iodinated I^125-albumin, Mallinckrodt Medical, Inc., St. Louis, Mo.) and whole body hematocrit.
Following cannulation all animals were hydrated with 5 mg % albumin to increase filling pressure (LVEDP) above 5 mm Hg and to bring hematocrit to near 40 vol %. Twelve dogs underwent isovolemic exchange of blood for 10 gm % hemoglobin to hematocrit 50% of baseline.
(§3) Once MAP stabilized (≈5-10 min), hemodynamic measurements, blood gases and other samples were obtained.

[6] = Whole body oxygenation (Example I); assay type: in vivo, mongrel dogs; conditions: for CaO2: arterial oxygen content
Description: as §2
Whole body oxygen extraction ratio (O2 extr, %) was calculated from arteria-mixed venous oxygen content difference C(a−v)O2 divided by the arterial oxygen content (CaO2). Whole body oxygen consumption (WBVO2) in ml/minute was determined using the Fick equation, WBVO2=CO×C(a−v)O2 Oxygen delivery (DO2) in ml/minute was calculated from CaO2×CO.
Upon arrival in the laboratory, typically all dogs had hematocrits of 45 vol % or greater and filling pressures (LVEDP) of 5 mm Hg or less. Following cannulation all animals were hydrated with 5 mg % albumin to increase filling pressure (LVEDP) above 5 mm Hg and to bring hematocrit to near 40 vol %. Twelve dogs underwent isovolemic exchange of blood for 10 gm % hemoglobin to hematocrit 50% of baseline. […] The colloid pressure of 10 gm % hemoglobin and 8 gm % albumin (both about 40 Torr) is about twice that of dog plasma and after in vivo dilution would be expected to sustain plasma volumes at baseline values or greater.
as §3

[7] = Systemic hemodynamics in anesthetized hemodiluted dogs (Example I); assay type: in vivo, mongrel dogs
Description: Twenty-four conditioned, heartworm-free male mongrel dogs (20 to 30 kg) were anesthetized with sodium pentobarbital (30 mg/kg i.v.) followed by an i.v. maintenance dose of 4 mg/kg/hour. After intubation of the trachea with a cuffed endotracheal tube, the dog was mechanically ventilated (Siemens 900D Servoventilator) with 100% oxygen, tidal volumes of 10 to 12 ml/kg and respiration at a rate to achieve normocarbia. […] Sodium bicarbonate was not administered. The body temperature of the dog was maintained at 39 C. with water-circulated heating pads.
The dog was placed supine and a polyethylene catheter (PE 200) was inserted into the thoracic aorta via the left femoral artery for measurement of blood pressure. Two small-bore (PE 90) heparin-filled catheters of different lengths were placed in the abdominal aorta via the right femoral artery to collect reference blood samples containing radioactive microspheres for measurement of regional blood flow. Wide-bore (PE 240) catheters were placed in the right femoral vein and in the right carotid artery, for isovolemic exchange transfusion and for the administration of intravenous fluids and collection of arterial blood samples. A 5 french thermodilution catheter was advanced into the pulmonary artery via the right external jugular vein for measurement of cardiac output and right atrial pressure. A Foley catheter was inserted into the bladder for urine collection.
Under fluoroscopy, a 5 french volume-conductance catheter (Mansfield Webster) was inserted via the left carotid artery across the aortic valve to the apex of the left ventricle to measure instantaneous volume.
The animal was then placed on its right side and paralyzed with doxacurium (0.05 mg/kg) to perform a left thoracotomy in the fourth intercostal space. The exposed lung was retracted with gauze. Five cm H2O positive end-expiratory pressure was instituted to prevent atelectasis. A small incision was made in the pericardium near the left atrial appendage. The appendage was protracted and a PE 90 catheter, for microsphere injection, inserted into the ventricle via pressure verification and then pulled back into the atrium. A 3 french micromanometer-tipped pressure catheter (Millar) was then inserted via the appendage into the left ventricle for pressure recording. Both catheters were secured with a ligature around the appendage and distally taped to the animal. The exposed thoracic surface was covered with plastic film to prevent evaporation.
Continuous measurements of heart rate (HR), pulsatile aortic pressure, mean aortic pressure (MAP), left ventricular peak pressure (LVPP), rate-of-change of LVPP (dP/dt), LV end diastolic pressure (LVEDP), LV volume, and right atrial pressure (RAP) were recorded on an analog thermal array recorder (Gould Model TA4000) and stored on a computerized data acquisition system (Halcom, Inc.) Cardiac output (CO) was measured in triplicate using a Spectramed Hemoprol computer. Systemic vascular resistance (SVR) was calculated from (MAP−RAP)÷CO. Systemic vascular hindrance (SVH) was calculated from SVR÷η, where η is the apparent viscosity of blood in centipoise (cp). At high flow rates (shear rates≈200 s^−1) assumed in the aorta, η is 4.0 cp for hematocrit (Hct) of 40 vol % and 2.1 cp for Hct of 20 vol %. Stroke volume was derived from CO÷HR. LV stroke work (LVSW) was calculated from (systolic AoP−LVEDP)×SV×0.0136.

cyclic GMP [8] = assay: Plasma cyclic GMP and arterial pressure before and after hemodilution and SNP (Example II); assay type: in vivo, dog; conditions: hemodilution alone, n = 5, mean ± sem
[9] = Properties of the hemoglobin product and colloid solutions; assay type: physicochemical
Description: as §2

[10] = Regional blood flows by radioactive microspheres (Example I); assay type: in vivo, mongrel dogs; conditions: dogs, hematocrit 50% of control
Description: Briefly, prior to injection, microspheres labeled with Sc^46, Sr^85, Sn^113 or Ce^141 were vortexed and sonicated. Approximately 30 microcuries (1×10^6 microspheres) were injected into the left atrium of a dog. Beginning with each microsphere injection, duplicate reference blood samples were collected at a constant rate (6 ml min^−1) for 3 minutes from the femoral PE 90 catheters. Radioactivity of the duplicate samples differed by less than 10%, indicating adequate mixing of the microspheres in the left ventricular output. To maintain isovolemic conditions during reference sampling, a 5% albumin solution was infused simultaneously.
After the final injection of microspheres, the heart was stopped by intravenous injection of potassium chloride. Skin and bone (rib) were sampled from a shaved area distal to the thoracotomy. Skeletal muscle samples were taken from the hindlimb, back, forelimb and head. The GI tract was excised from the esophageal sphincter to the anus. All mesentery and omentum were trimmed. The stomach was separated from the tract. These and all other organs were weighed. Multiple samples were taken from each organ and transferred to a tared counting tube.
The tissue and reference samples were weighed and analyzed for radioactivity with a gamma scintillation counter equipped with a multichannel analyzer (Packard Instrument, Downers Grove, Ill.). Isotope separation was accomplished by standard techniques of gamma spectroscopy. Values for organ blood flows (BForgan) in ml min^−1 were calculated from the equation BForgan=ABF×(MC÷AC)×organ weight (g), where ABF is the rate of arterial reference sampling (ml/minute), MC is the microsphere radioactivity (counts min^−1 g^−1) in the tissue samples, and AC is the total microsphere radioactivity (counts/minute) in the arterial reference samples. The fractional distribution of cardiac output to each organ was computed from BForgan÷ΣBForgan, where ΣBForgan is the sum of all organ flows. Skeletal muscle, skin and bone weights were calculated as 40%, 9% and 8% of body weight, respectively.

[11] = In vivo test of hemoglobin product for common adverse effects during hemodilution; conditions: anesthetized dog, hemodilution to hematocrit 50% of baseline
Description: The hemoglobin product was also tested in vivo on dogs for common adverse effects of therapeutic products which are administered intravascularly. The hemodilution protocol used and the physiologic tests performed are standard in the art and were similar to that described in Rabiner et al., J. Exp. Med., 86, 455-463 (1967); Sunder-Plassmann et al., supra; and Crystal et al., Anesth. Analg., 67, 211-218 (1988) Briefly, the hemoglobin product was infused into a venous access of an anesthetized dog with simultaneous withdrawal of arterial blood on a one-to-one basis at about 25 ml/minute until hematocrit was 50% of baseline (about 20 vol %). Tests for pyrogenic effects, hypotensive effects, arrhythmia, inotropic effects, bradycardia, tachycardia, hypovolemia, dysoria, and coagulopathy were all negative.

[12] = BAEE 400 μg/kg/min during oxyHb-HD, n = 3
[13] = anesthetized dogs, hemodilution to hematocrit 50% of baseline

COC(=O)[C@@H](N)CCCNC(=N)N[N+](=O)[O-] [L-NAME, L-nitro arginine methyl ester]
CO (nitric oxide synthase): 2413 ± 1721+ ml/min
MAP (nitric oxide synthase): 152 ± 8*+ mm Hg
cGMP (nitric oxide synthase): 17.38 ± 0.98*+ μg/ml

CCOC(=O)[C@H](CCCNC(=N)N)NC(=O)c1ccccc1 [BAEE, N-benzoyl-L-arginine ethyl ester, reference compound]
MAP (cyclic GMP [1]; [12]): 108 ± 8*+ mm Hg
cGMP (cyclic GMP [1]; [12]): 24.44 ± 1.05*+ μg/ml
CO ([2]; BAEE 400 μg/kg/min during oxyHb-HD): 2376 ± 233 mL/min
reversal of cardiac output to the high levels of Ab-HD alone [3]: not reversed

HbHD: Purified canine hemoglobin (10 gm %) used for isovolemic hemodilution
Cyclic GMP levels in regional interstitial microdialysate, MU (cyclic GMP [4]; MU): 17.98* μg/ml
Cyclic GMP levels in regional interstitial microdialysate, BO (cyclic GMP [4]; bone): 18.64* μg/ml
Cyclic GMP levels in regional interstitial microdialysate, BR (cyclic GMP [4]; brain): 19.94* μg/ml
Cyclic GMP levels in regional interstitial microdialysate, GI (cyclic GMP [4]; gastrointestinal tract): 12.68* μg/ml
Cyclic GMP levels in regional interstitial microdialysate, HE (cyclic GMP [4]; heart): 14.44* μg/ml
Cyclic GMP levels in regional interstitial microdialysate, LI (cyclic GMP [4]; liver): 20.34* μg/ml
Cyclic GMP levels in regional interstitial microdialysate, LU (cyclic GMP [4]; lung): 18.74* μg/ml
Cyclic GMP levels in regional interstitial microdialysate, SP (cyclic GMP [4]; spleen): 16.40* μg/ml
Plasma Hb [5]: 4.6 g/100 ml
Plasma Hb ([5]; listed as hemoglobin): 4.6 g/100 ml
plasma hemoglobin as share of total whole blood hemoglobin concentration ([5]; dog, in vivo): approximately 40%
hemoglobin excreted in urine, share of the approximately 100 grams infused ([5]; hemoglobinuria): less than 1%
MAP (cyclic GMP [1]; oxyHb-HD alone, n = 3): 146 ± 5 mm Hg
cGMP (cyclic GMP [1]; oxyHb-HD alone, n = 3, mean ± sem): 17.80 ± 0.95 µg/mL
CO ([2]; oxyHb-HD alone): 2880 ± 245 mL/min
C(a-v)O2 ([6]; anesthetized dogs): 6.1 ml/100 ml
CvO2 ([6]; anesthetized dogs): 8.8 ml/100 ml
CaO2 ([6]; anesthetized dogs): 14.9 ml/100 ml
CaO2 ([6]; anesthetized dogs, listed as hemoglobin): 14.9±0.4 ml/100 ml
DO2 ([6]; oxygen delivery = CaO2 x CO): 302 mL/min
decrease in oxygen delivery ([6]; vs control): 30%
reduction in arterial oxygen content ([6]; vs control): 24%
WBVO2 ([6]; whole body oxygen consumption): 125 mL/min
O2 extr ([6]; whole body oxygen extraction ratio): 45%
LV Elastance [7, 13]: 4.91 mm Hg ml
LV dP/dtmax [7, 13]: 1713 mm Hg/sec
LVPP [7, 13]: 154 mm Hg
LVSW [7, 13]: 29.2 g m/beat
MAP [7, 13]: 136 mm Hg
heart rate [7, 13]: 153 beats/min
mean aortic, right atrial and LV end-diastolic (systemic) pressures vs control ([7]; dog, in vivo): not changed
systemic vascular resistance vs control ([7]; dog, in vivo): not changed
effect on cardiac output and stroke volume ([7]; vs control): did not change
increase in systemic vascular hindrance ([7]; vs control): ~100%
Cyanide (blood, n = 6): 0.13 ± 0.03 mg/L
Lactate (dog, in vivo): 2.2 ± 0.3 meq/L
MAP (cyclic GMP [8]): 142 ± 6 mm Hg
Plasma cGMP (cyclic GMP [8]; listed as oxyHb-HD): 17.22 ± 1.02*+ μg/ml and 17.22 ± 1.02 μg/ml
% carboxyhemoglobin [9]: <0.5%
% methemoglobin [9]: <1%
Ca^+ [9]: 1.2 mmol/L
Colloid osmotic pressure [9]: 40 mm Hg
Davenport diagram [9]: Normal
Haldane effect [9]: Normal
Hill plot [9]: Normal
K [9]: 3.4 mmol/L
Na [9]: 150 mmol/L
Osmolality [9]: 310 mOsmol/kg
Oxygen capacity [9]: 13.5 vol %
Oxygen content [9]: 13.5 vol %
PCO2 [9]: 15 mm Hg
PO2 [9]: 200 mm Hg
Total Hb concentration [9]: 10 gm %
Viscosity [9]: ≈2.0 cp
pH [9]: 6.9
COP of colloid solution ([9]; 8% albumin, 10% hemoglobin, Wescor 4400 Colloid Osmometer): 40.8±1.0 mm Hg
Bohr coefficient ([9]; pH 7.2-7.4): 0.54 (pH 7.2-7.4)
P50 ([9]; pH 7.4): 24 mm Hg (pH 7.4)
Organ blood flow, change from control: Bone [10]: No
Organ blood flow, change from control: Brain [10]: Yes (+40%)
Organ blood flow, change from control: Gastrointestinal [10]: No
Organ blood flow, change from control: Liver [10]: No
Organ blood flow, change from control: Lung [10]: Yes (−53%)
Organ blood flow, change from control: Myocardium [10]: Yes (+80%)
Organ blood flow, change from control: Pancreas [10]: No
Organ blood flow, change from control: Renal [10]: No
Organ blood flow, change from control: Skeletal muscle [10]: No
Organ blood flow, change from control: Skin [10]: No
Organ blood flow, change from control: Spleen [10]: Yes (−39%)
Organ blood flow, change from control: Total (= Cardiac output) [10]: No
Tests for pyrogenic effects, hypotensive effects, arrhythmia, inotropic effects, bradycardia, tachycardia, hypovolemia, dysoria, and coagulopathy [11]: negative
